Like-named read-outs stand apart in the source and are kept apart here.
Assays:
[1] = system: GAG-deficient CHO-pgsA745 cells (GAG^deficient); details: fluorometry of lysate (50 mM Tris pH 7.4, 1 M NaCl, 1% NP40, sonicated), ex 494 nm, calibration curve, 10^6 cells, 7.5 μM peptide in DMEM, 60 min, mean ± spread, n in cell; for 37 °C - INTERNALIZED, GAG^deficient (FLUOROMETRY): trypsin digestion; for 4 °C - INTERNALIZED, GAG^deficient (FLUOROMETRY): pronase digestion
Procedure: (§1) To quantify CPP internalization in cells, we kept the conditions of sample preparation for the measurement of the quantity of internalized and cell-associated (membrane-bound plus internalized) fluorescent peptides previously optimized for a MALDI-TOF MS based protocol, and illustrated in Fig. 3. Briefly, one million adherent cells were incubated with CF-CPP for the indicated time and temperature. […] Cells were then washed, lysed, sonicated and the lysate was cleared by centrifugation. The amount of internalized peptide was quantified by direct measurement of the fluorescence remaining in the supernatant. To evaluate the quantity of cell-associated (membrane-bound and internalized) peptide, the proteolytic step was omitted. A calibration curve was fitted from the fluorescence intensity of definite amounts of the same peptide in cell lysates ran in parallel for each experiment (Fig. 3). Comparison of the fluorescence intensity between the samples and the calibration curve permitted the absolute quantification of internalized and cell-associated peptides.
(§2) Figure 4 Quantification by fluorometry of (A) internalized and (B) membrane-bound CF-Penetratin in WT, GAG^deficient and SA^deficient CHO cells. One million cells were incubated with 2.5 or 7.5 μM CF-Penetratin in DMEM for 60 min at 37 °C or 4 °C. To measure the total cell-associated peptide (membrane-bound plus internalized), cells were washed and lysed in a buffer (50 mM Tris pH 7.4, 1 M NaCl, 1% Nonidet P40), sonicated and centrifuged 10 min at 16,000 g. To obtain the internalized peptide, the membrane-bound peptide was digested with 0.05% trypsin/EDTA (37 °C) or pronase (4 °C). After washes, cells were lysed, sonicated and centrifuged. To calculate the amount of internalized and membrane bound cell peptide, we compare the fluorescence intensity (excitation at 494 nm) to the calibration curve obtained from parallel experiments (see Fig. 3). Error bars correspond to standard errors obtained from n = 4 independent experiments for each experimental condition. Intracellular concentrations (μM) were calculated from the mean volume of one CHO cell (assimilated to a sphere of 10–15 μm diameter) being 1 pL: picomoles in 1 μL (10^6 cells) thus correspond to μM concentrations.
(§3) Wild type Chinese Hamster Ovary CHO-K1 cells (WT), xylose-transferase- or GAG-deficient CHO-pgsA745 cells (GAG^deficient) and sialic acid deficient CHO-lec2 cells (SA^deficient) (ATCC, LGC Standards S.a.r.l. - France) were cultured in F12 growth medium (DMEM-F12) supplemented with 10% fetal calf serum (FCS), penicillin (100,000 IU/L), streptomycin (100,000 IU/L), and amphotericin B (1 mg/L) in a humidified atmosphere containing 5% CO2 at 37 °C.
(§4) One million cells were incubated one hour at 37 °C or 4 °C with CF-Penetratin (2.5 μM and 7.5 μM), Biotin-(CF)Penetratin, CF-Arg9 and CF-TAT (7.5 μM) in 1 mL DMEM.
(§5) To access internalized peptides, after washing cells with HBSS, (0.05%) 500 μL trypsin/EDTA (37 °C, 5 min) or (0.05%) pronase (4 °C, 10 min) was added for 5 min to hydrolyze the remaining extracellular and the membrane-bound peptide and to detach cells. After addition of enzyme inhibitors (100 μL (one Complete Mini tablet, Roche, in 2.5 mL PBS) mixed with 100 μL bovine serum albumin (1 mg/mL), cells were transferred into a microtube, centrifuged, washed with 1 mL 50 mM Tris buffer pH 7.4, 0.1% BSA, and lysed in 200 μL 50 mM Tris pH 7.4, 1 M NaCl, 1% NP40. The samples were then sonicated for 30 min and centrifuged 10 min at 16,000 g.
(§6) To obtain the value of the total cell-associated peptide (internalized and membrane-bound species), after washing cells with HBSS, cells were directly lysed in 50 mM Tris pH 7.4, 1 M NaCl, 1% NP40. The samples were then sonicated for 30 min and centrifuged 10 min at 16,000 g.

[2] = system: sialic acid deficient CHO-lec2 cells (SA^deficient); details: fluorometry of lysate (50 mM Tris pH 7.4, 1 M NaCl, 1% NP40, sonicated), ex 494 nm, calibration curve, 10^6 cells, 7.5 μM peptide in DMEM, 60 min, mean ± spread, n in cell; for 37 °C - INTERNALIZED, SA^deficient (FLUOROMETRY): trypsin digestion; for 4 °C - INTERNALIZED, SA^deficient (FLUOROMETRY): pronase digestion
Procedure: as §1, §2, §3, §4, §5, §6

CHO cells [3] = assay: Cytotoxicity, Cell Counting Kit 8 (CCK-8); assay type: cell-based, Chinese Hamster; details: 2 × 10^4 CHO cells/well, peptide 1; 5; 10 and 20 μM, 60 min, then 3 h 10% CCK-8, absorbance 450 nm
Procedure: Cytotoxicity was determined with the Cell Counting Kit 8 (CCK-8) from Dojindo Molecular Technologies. This colorimetric assay allows to measure the viability of cells. 96-well plates were inoculated with 100 μL/well of a suspension of CHO cells (2.10^4 cells/well). […] After washing, the cells were incubated with 100 μL of 10% CCK-8 in DMEM for 3 hours and the absorbance was measured at 450 nm with a microplate reader (Polarstar Optima). Controls corresponded to untreated cells (negative control, 100% viability) and cells treated with 0.2% of Triton X-100 (positive control, 0% viability). Supplementary Figure S1. […] A 96-well plate was inoculated with 100 µL/well of a suspension of CHO cells (2 × 10^4 cells/well). […] Controls corresponded to untreated cells (negative control, 100% viability) and cells treated with 0.2% of Triton X-100 (positive control, 0% viability).

[4] = system: Wild type Chinese Hamster Ovary CHO-K1 cells (WT); assay: Fluorometry quantification of internalized CF-peptide in cell lysates; assay type: cell-based; details: for 4 °C - INTERNALIZED, WT (FLUOROMETRY) / 37 °C - INTERNALIZED, WT (FLUOROMETRY): fluorometry of lysate (50 mM Tris pH 7.4, 1 M NaCl, 1% NP40, sonicated), ex 494 nm, calibration curve, 10^6 cells, 7.5 μM peptide in DMEM, 60 min, mean ± spread, n in cell; for 4 °C - INTERNALIZED, WT (FLUOROMETRY): 4 °C (translocation only), 0.05% pronase digestion; for 37 °C - INTERNALIZED, WT (FLUOROMETRY): 0.05% trypsin/EDTA digestion, μM from 1 pL cell volume
Procedure: as §1, §2, §3, §4, §5, §6

[5] = system: GAG-deficient CHO-pgsA745 cells (GAG^deficient); details: MALDI-TOF MS (sinapinic acid matrix), 2H-peptide internal standard, 10^6 adherent cells, 7.5 μM extracellular peptide, 1 h, trypsin digestion
Procedure: as §1, §3
(§7) The protocol has been fully described elsewhere by Burlina et al.[14][16]. Briefly, one million adherent cells were incubated one hour with biotin-labeled peptides (^1H-CPP). After washing with HBSS, 0.05% trypsin/EDTA (37 °C, 5 min) or 0.05% pronase (4 °C, 10 min) digestion, cells were lysed in a solution containing a relevant quantity of the deuterated form (^2H-CPP) of the same peptide sequence, which is used as internal standard to quantify the internalized amount of ^1H-CPP. MALDI-TOF MS analyses were done using cyano-4-hydroxy-cinnamic acid (CHCA), for Biotin-Penetratin or sinapinic acid for Biotin-(CF)Penetratin. Unless indicated, experiments were performed in triplicates and repeated at least three times independently.

[6] = system: Wild type Chinese Hamster Ovary CHO-K1 cells (WT); details: 7.5 μM extracellular peptide
Procedure: as §1, §3, §7

[7] = system: sialic acid deficient CHO-lec2 cells (SA^deficient); details: MALDI-TOF MS of lysate, 2H-peptide internal standard, 10^6 adherent cells, 7.5 μM extracellular peptide, 1 h, ref [19], cited from earlier work
[8] = system: Wild type Chinese Hamster Ovary CHO-K1 cells (WT); details: MALDI-TOF MS of lysate, 2H-peptide internal standard, 10^6 adherent cells, 7.5 μM extracellular peptide, 1 h, ref [19], cited from earlier work
[9] = system: GAG-deficient CHO-pgsA745 cells (GAG^deficient); details: MALDI-TOF MS of lysate, 2H-peptide internal standard, 10^6 adherent cells, 7.5 μM extracellular peptide, 1 h, ref [19], cited from earlier work
CHO cells [10] = system: CHO cells
Procedure: We examined the impact of the concentration of Trypan Blue on cell-associated fluorescence compared to control conditions in the absence of Trypan Blue. Cells were incubated with CF-Penetratin. After washings, different concentrations of Trypan Blue were added before cytometry analysis. […] We next examined the quenching ability of Trypan Blue on increasing CF-Penetratin concentrations.
Figure 7 Quenching assays of membrane-bound fluorescence for flow cytometry internalization quantification. (A) Fluorescence quenching according to Trypan Blue quantity (% in g for 100 mL). […] After washing with cold PBS, cells were analyzed in the absence or the presence of Trypan Blue. Lower panel: Stern-Volmer plot. (B) Quenching of membrane fluorescence was assayed with various experimental conditions: 0.2% Trypan Blue, 0.01% trypsin (5 min, 37 °C), 0.5 mg/mL heparin (3 times 5 min, 37 °C). 20,000 events were recorded for each experimental condition. Data were normalized to 100% fluorescence in the absence of Trypan Blue.
Cells were dissociated with 0.5 mM EDTA in PBS (5 min at 37 °C), centrifuged at 800 g, and suspended in DMEM culture medium. […] To optimize fluorescence quenching of the membrane-bound fluorescein, the cell suspension was treated with different concentrations of Trypan Blue. […] 20,000 events were recorded for every experimental conditions.

[11] = 37 °C, trypsin digestion, μM from 1 pL cell volume

Substance: Biotin-GGGG(εCF)KRQIKIWFQNRRMKWKK-NH2 [Biotin-(CF)PEN]
- 37 °C - INTERNALIZED, GAG^deficient (FLUOROMETRY) [1]: 1.1 ± 0.1 (n = 4) μM
- 37 °C - INTERNALIZED, SA^deficient (FLUOROMETRY) [2]: 6.9 ± 1.8 (n = 3) μM
- cytotoxicity (cell viability, CCK-8) (CHO cells [3]): none of the peptides used in this study was cytotoxic
- 4 °C - INTERNALIZED, WT (FLUOROMETRY) [4]: 1.5 ± 0.1 (n = 10) μM
- 37 °C - INTERNALIZED, WT (FLUOROMETRY) [4]: 9.8 ±1.0 (n = 14) μM
- 37 °C - INTERNALIZED, GAG^deficient (MALDI-TOF MS) [5]: Not detectable
- 4 °C - INTERNALIZED, WT (MALDI-TOF MS) ([6]; MALDI-TOF MS (sinapinic acid matrix), 2H-peptide internal standard, 10^6 adherent cells, 1 h, 4 °C, pronase digestion): Not detectable
- 37 °C - INTERNALIZED, WT (MALDI-TOF MS) ([6]; MALDI-TOF MS (sinapinic acid matrix), 2H-peptide internal standard, 10^6 adherent cells, 1 h, 37 °C, trypsin digestion, μM from 1 pL cell volume, mean ± spread, n in cell): 8.7 ± 1.1 (n = 19) μM
- intracellular degradation of the internalized peptide, from mass spectra ([6]; MALDI-TOF MS of cell lysate, one-hour incubation, 37 °C): not quickly degraded

Substance: Biotin-GGGGRQIKIWFQNRRMKWKK-NH2 [Biotin-PEN]
- 4 °C - INTERNALIZED, SA^deficient (MALDI-TOF MS) ([7]; 4 °C, pronase digestion): 1.0 ± 0.2 µM
- 37 °C - INTERNALIZED, SA^deficient (MALDI-TOF MS) [7, 11]: 6.0 ± 1.0 µM
- 4 °C - INTERNALIZED, WT (MALDI-TOF MS) ([8]; 4 °C (translocation only), 0.05% pronase digestion): 0.9 ± 0.2 µM
- 37 °C - INTERNALIZED, WT (MALDI-TOF MS) ([8]; 37 °C, membrane-bound peptide digested with 0.05% trypsin/EDTA, μM from 1 pL cell volume): 5.0 ± 0.5 µM
- 4 °C - INTERNALIZED, GAG^deficient (MALDI-TOF MS) ([9]; 4 °C, pronase digestion): 0.6 ± 0.1 µM
- 37 °C - INTERNALIZED, GAG^deficient (MALDI-TOF MS) [9, 11]: 1.9 ± 0.2 µM

Substance: Carboxyfluorescein-Apa-RQIKIWFQNRRMKWKK-NH2 [CF-PEN]
- 4 °C - INTERNALIZED, GAG^deficient (FLUOROMETRY) [1]: 1.7 ± 0.8 (n = 3) μM
- 4 °C - INTERNALIZED, GAG^deficient (FLUOROMETRY) ([1]; listed as CF-Penetratin): 1 to 2 µM
- 37 °C - INTERNALIZED, GAG^deficient (FLUOROMETRY) [1]: 7.0 ± 0.5 (n = 4) μM
- 4 °C - INTERNALIZED, SA^deficient (FLUOROMETRY) [2]: 1.0 ± 0.1 (n = 4) μM
- 4 °C - INTERNALIZED, SA^deficient (FLUOROMETRY) ([2]; listed as CF-Penetratin): 1 to 2 µM
- 37 °C - INTERNALIZED, SA^deficient (FLUOROMETRY) [2]: 33 ± 5.3 (n = 4) μM
- 4 °C - INTERNALIZED, WT (FLUOROMETRY) [4]: 2.4 ± 0.4 (n = 3) μM
- 4 °C - INTERNALIZED, WT (FLUOROMETRY) ([4]; listed as CF-Penetratin): 1 to 2 µM
- 37 °C - INTERNALIZED, WT (FLUOROMETRY) [4]: 22 ± 1.3 (n = 11) μM
- ratio of total cell-associated to internalized peptide by fluorometry ([4]; fluorometry of lysates, cell line not given): ~100 folds
- difference between total cell-associated and internalized fluorescence signals by flow cytometry (CHO cells [10]): 1.25 to 2 folds

Source: article PMC5107916, “Quantitative fluorescence spectroscopy and flow cytometry analyses of cell-penetrating peptides internalization pathways: optimization, pitfalls, comparison with mass spectrometry quantification” (Scientific Reports, 2016)
